Results: the NIST ThermoML archive (doi:10.1021/je400622g)
Numbers after ± are expanded uncertainties.

Experiments:
[1] = Liquid; for mass density: 298.15 K, Vibrating tube method
[2] = refractive index (Na D-line) (dimensionless); conditions: 298.15 K; 101.33 kPa; Liquid; Standard Abbe refractometry
[3] = xn = mol fraction of the nth substance listed; conditions: 298.15 K, Liquid, Vibrating tube method

CCOC(C)=O [ethyl acetate]
Conditions | mass density [kg/m3] | refractive index
[1] | 894.5 ± 0.2 | –
[2] | – | 1.3698 ± 0.0005

Conditions | vapor or sublimation pressure [kPa]
[1], 417.02 K, Ebulliometric method (Recirculating still) | 600 ± 8.4

Conditions | Normal boiling temperature [°C]
[1], Ebulliometric method (Recirculating still) | 77.04 ± 0.3

CCOC(C)=O [ethyl acetate] + CCCO
[3]
Conditions | mass density [kg/m3]
x1 = 0.0442 | 804.5 ± 0.3
x1 = 0.0911 | 809.6 ± 0.3
x1 = 0.1433 | 815.2 ± 0.3
x1 = 0.201 | 821.3 ± 0.3
x1 = 0.2417 | 825.5 ± 0.3
x1 = 0.2986 | 831.4 ± 0.3
x1 = 0.3435 | 835.9 ± 0.3
x1 = 0.4654 | 847.6 ± 0.2
x1 = 0.5534 | 855.8 ± 0.2
x1 = 0.6461 | 864.2 ± 0.2
x1 = 0.6917 | 868.2 ± 0.2
x1 = 0.7647 | 874.5 ± 0.2
x1 = 0.8037 | 877.9 ± 0.2
x1 = 0.8347 | 880.5 ± 0.2
x1 = 0.8535 | 882.1 ± 0.2
x1 = 0.9053 | 886.4 ± 0.2
x1 = 0.9649 | 891.4 ± 0.2
x1 = 1 | 894.5 ± 0.2

COC(C)=O [methyl ethanoate]
Conditions | vapor or sublimation pressure [kPa]
[1], 393.01 K, Ebulliometric method (Recirculating still) | 600 ± 8.7

CCCO [propan-1-ol]
Conditions | mass density [kg/m3]
[1] | 799.6 ± 0.3

Conditions | vapor or sublimation pressure [kPa]
[1], 427.2 K, Ebulliometric method (Recirculating still) | 600 ± 8.7

CCCO [propan-1-ol] + CCCOC(C)=O
Conditions | mass density [kg/m3]
[3], x2 = 0 | 799.6 ± 0.3

CCCO [propan-1-ol] + CCOC(C)=O
Conditions | mass density [kg/m3]
[3], x2 = 0 | 799.6 ± 0.3

CCCOC(C)=O [propyl ethanoate]
Conditions | mass density [kg/m3]
[1] | 882.4 ± 0.2

Conditions | vapor or sublimation pressure [kPa]
[1], 446.02 K, Ebulliometric method (Recirculating still) | 600 ± 8.4

CCCOC(C)=O [propyl ethanoate] + CCCO
[3]
Conditions | mass density [kg/m3]
x1 = 0.0544 | 805.9 ± 0.3
x1 = 0.0997 | 810.9 ± 0.3
x1 = 0.1515 | 816.5 ± 0.3
x1 = 0.1951 | 821 ± 0.3
x1 = 0.2503 | 826.4 ± 0.3
x1 = 0.3164 | 832.6 ± 0.3
x1 = 0.3481 | 835.4 ± 0.3
x1 = 0.4144 | 841.2 ± 0.3
x1 = 0.4959 | 847.9 ± 0.2
x1 = 0.5463 | 851.8 ± 0.2
x1 = 0.6051 | 856.2 ± 0.2
x1 = 0.6968 | 862.8 ± 0.2
x1 = 0.7528 | 866.6 ± 0.2
x1 = 0.7893 | 869 ± 0.2
x1 = 0.7984 | 869.7 ± 0.2
x1 = 0.8531 | 873.2 ± 0.2
x1 = 0.8873 | 875.4 ± 0.2
x1 = 0.9521 | 879.4 ± 0.2
x1 = 1 | 882.4 ± 0.2
